According to patent US6737383B1, “Herbicidal oxadiazolidines” (priority 1999, dated 2004):

Legend:
[1] = test system: bedstraw; experiment: Test B pre/postemergence bedstraw; type: in vivo, Galium aparine
Outline: (§1)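 Test chemicals in a non-phytotoxic solvent mixture with surfactant were sprayed preemergence onto planted seeds and postemergence onto plants 2 to 18 cm tall (1- to 4-leaf stage). After twelve to sixteen days in a greenhouse, injury was visually rated against untreated controls from 0 (no effect) to 10 (complete control).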

[2] = test system: blackgrass; experiment: Test B pre/postemergence blackgrass; type: in vivo, Alopecurus myosuroides
Outline: as §1

[3] = test system: surinam grass; experiment: Test B pre/postemergence surinam grass; type: in vivo, Brachiaria decumbens
Outline: as §1

[4] = test system: cocklebur; experiment: Test B pre/postemergence cocklebur; type: in vivo, Xanthium strumarium
Outline: as §1

[5] = test system: corn; experiment: Test B pre/postemergence corn; type: in vivo, Zea mays
Outline: as §1

[6] = test system: giant foxtail; experiment: Test B pre/postemergence giant foxtail; type: in vivo, Setaria faberii
Outline: as §1

[7] = test system: morningglory; experiment: Test B pre/postemergence morningglory; type: in vivo, Ipomoea hederacea
Outline: as §1

[8] = test system: pigweed; experiment: Test B pre/postemergence pigweed; type: in vivo, Amaranthus retroflexus
Outline: as §1

[9] = test system: rape; experiment: Test B pre/postemergence rape; type: in vivo, Brassica napus
Outline: as §1

[10] = test system: soybean; experiment: Test B pre/postemergence soybean; type: in vivo, Glycine max
Outline: as §1

[11] = test system: sugar beet; experiment: Test B pre/postemergence sugar beet; type: in vivo, Beta vulgaris
Outline: as §1

[12] = test system: velvetleaf; experiment: Test B pre/postemergence velvetleaf; type: in vivo, Abutilon theophrasti
Outline: as §1

[13] = test system: purple nutsedge; experiment: Test B pre/postemergence purple nutsedge; type: in vivo, Cyperus rotundus
Outline: as §1

[14] = test system: smallflower flatsedge; experiment: Test B flood test smallflower flatsedge; type: in vivo, Cyperus difformis
Outline: (§2)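 Plants were grown to the 2-leaf stage before treatment with test chemical, then held in a greenhouse for twelve to sixteen days. Injury was visually rated against untreated controls on a 0–10 scale, where 0 is no effect and 10 is complete control.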

[15] = test system: duck salad; experiment: Test B flood test duck salad; type: in vivo, Heteranthera limosa
Outline: as §2

[16] = test system: bamyardgrass; experiment: Test B flood test barnyardgrass; type: in vivo, Echinochloa crus-galli
Outline: as §2

[17] = Postemergence, Rate 62 g/ha, scale 0 to 10, 0 is no effect, 10 is complete control
[18] = Preemergence, Rate 62 g/ha, scale 0 to 10 (0 no effect, 10 complete control)
[19] = Preemergence, Rate 125 g/ha, scale of 0 to 10 where 0 is no effect and 10 is complete control
[20] = Preemergence, Rate 250 g/ha, scale 0 to 10 (0 no effect, 10 complete control)
[21] = Preemergence, Rate 500 g/ha, scale of 0 to 10 where 0 is no effect and 10 is complete control
[22] = Postemergence, Rate 125 g/ha, scale of 0 to 10 where 0 is no effect and 10 is complete control
[23] = Postemergence, Rate 250 g/ha, scale of 0 to 10, 0 is no effect, 10 is complete control
[24] = Postemergence, Rate 500 g/ha, scale of 0 to 10 where 0 is no effect and 10 is complete control
[25] = Rate 62 g/ha, flood test species, Pre-emergence, visual evaluation after twelve to sixteen days
[26] = Rate 125 g/ha, under heading Pre-emergence, flood test species, visual evaluation after twelve to sixteen days
[27] = Rate 250 g/ha, Pre-emergence (flood test species), scale 0 to 10, 0 is no effect, 10 is complete control
[28] = Rate 500 g/ha, Pre-emergence section of Table B, 0 to 10 scale (0 no effect, 10 complete control)

COCCn1c(=O)on(C(=O)N(c2ccc(F)cc2F)C(C)C)c1=O [Compound 628]
Plant response rating, Bedstraw [1, 17]: 0
Bedstraw plant response rating [1, 18]: 6
Bedstraw plant response rating [1, 19]: 7
Plant response rating, Bedstraw [1, 20]: 10
Plant response rating, Bedstraw [1, 21]: 10
Plant response rating, Blackgrass [2, 17]: 6
Plant response rating, Blackgrass [2, 22]: 8
Blackgrass plant response rating [2, 23]: 9
Plant response rating, Blackgrass [2, 24]: 9
Blackgrass plant response rating [2, 18]: 6
Blackgrass plant response rating [2, 19]: 9
Plant response rating, Blackgrass [2, 20]: 10
Plant response rating, Blackgrass [2, 21]: 10
Plant response rating, B. signalgrass [3, 17]: 2
Plant response rating, B. signalgrass [3, 22]: 8
B. signalgrass plant response rating [3, 23]: 8
Plant response rating, B. signalgrass [3, 24]: 8
B. signalgrass plant response rating [3, 18]: 3
B. signalgrass plant response rating [3, 19]: 7
Plant response rating, B. signalgrass [3, 20]: 8
Plant response rating, B. signalgrass [3, 21]: 10
Plant response rating, Cocklebur [4, 17]: 0
Plant response rating, Cocklebur [4, 22]: 1
Cocklebur plant response rating [4, 23]: 6
Plant response rating, Cocklebur [4, 24]: 7
Cocklebur plant response rating [4, 18]: 2
Cocklebur plant response rating [4, 19]: 3
Plant response rating, Cocklebur [4, 20]: 4
Plant response rating, Cocklebur [4, 21]: 7
Plant response rating, Corn [5, 17]: 0
Plant response rating, Corn [5, 22]: 6
Corn plant response rating [5, 23]: 7
Plant response rating, Corn [5, 24]: 7
Corn plant response rating [5, 18]: 3
Corn plant response rating [5, 19]: 6
Plant response rating, Corn [5, 20]: 7
Plant response rating, Corn [5, 21]: 9
Plant response rating, Giant foxtail [6, 17]: 8
Plant response rating, Giant foxtail [6, 22]: 9
Giant foxtail plant response rating [6, 23]: 9
Plant response rating, Giant foxtail [6, 24]: 9
Giant foxtail plant response rating [6, 18]: 10
Giant foxtail plant response rating [6, 19]: 10
Plant response rating, Giant foxtail [6, 20]: 10
Plant response rating, Giant foxtail [6, 21]: 10
Plant response rating, Morningglory [7, 17]: 1
Plant response rating, Morningglory [7, 22]: 2
Morningglory plant response rating [7, 23]: 2
Plant response rating, Morningglory [7, 24]: 2
Morningglory plant response rating [7, 18]: 5
Morningglory plant response rating [7, 19]: 5
Plant response rating, Morningglory [7, 20]: 5
Plant response rating, Morningglory [7, 21]: 7
Plant response rating, Redroot pigweed [8, 17]: 3
Plant response rating, Redroot pigweed [8, 22]: 3
Redroot pigweed plant response rating [8, 23]: 7
Redroot pigweed plant response rating [8, 18]: 8
Redroot pigweed plant response rating [8, 19]: 9
Plant response rating, Redroot pigweed [8, 20]: 9
Plant response rating, Redroot pigweed [8, 21]: 10
Plant response rating, Rape [9, 17]: 0
Plant response rating, Rape [9, 22]: 0
Rape plant response rating [9, 23]: 3
Plant response rating, Rape [9, 24]: 6
Rape plant response rating [9, 18]: 0
Rape plant response rating [9, 19]: 2
Plant response rating, Rape [9, 20]: 4
Plant response rating, Rape [9, 21]: 9
Plant response rating, Soybean [10, 17]: 4
Soybean plant response rating [10, 18]: 0
Soybean plant response rating [10, 19]: 0
Plant response rating, Soybean [10, 20]: 4
Plant response rating, Soybean [10, 21]: 7
Plant response rating, Sugarbeets [11, 17]: 0
Plant response rating, Sugarbeets [11, 22]: 0
Sugarbeets plant response rating [11, 23]: 3
Sugarbeets plant response rating [11, 18]: 3
Sugarbeets plant response rating [11, 19]: 4
Plant response rating, Sugarbeets [11, 20]: 7
Plant response rating, Sugarbeets [11, 21]: 7
Plant response rating, Velvetleaf [12, 17]: 6
Plant response rating, Velvetleaf [12, 22]: 6
Velvetleaf plant response rating [12, 23]: 8
Velvetleaf plant response rating [12, 18]: 7
Plant response rating, Velvetleaf [12, 20]: 9
Plant response rating, Velvetleaf [12, 21]: 10
Plant response rating, Nutsedge [13, 17]: 0
Nutsedge plant response rating [13, 18]: 3
Nutsedge plant response rating [13, 19]: 6
Plant response rating, Nutsedge [13, 20]: 6
Plant response rating, Nutsedge [13, 21]: 9
Plant response rating, S. Flatsedge (0 to 10 scale, 0 is no effect, 10 is complete control) [14, 25]: 0
S. Flatsedge plant response rating (0 to 10 scale, 0 is no effect, 10 is complete control) [14, 26]: 0
S. Flatsedge plant response rating [14, 27]: 0
S. Flatsedge plant response rating [14, 28]: 0
Plant response rating, Ducksalad (0 to 10 scale, 0 is no effect, 10 is complete control) [15, 25]: 0
Ducksalad plant response rating (0 to 10 scale, 0 is no effect, 10 is complete control) [15, 26]: 0
Ducksalad plant response rating [15, 27]: 0
Ducksalad plant response rating [15, 28]: 0
Plant response rating, Barnyardgrass (0 to 10 scale, 0 is no effect, 10 is complete control) [16, 25]: 0
Barnyardgrass plant response rating (0 to 10 scale, 0 is no effect, 10 is complete control) [16, 26]: 0
Barnyardgrass plant response rating [16, 27]: 0
Barnyardgrass plant response rating [16, 28]: 0
